Patent US4242330A, “Derivative of aspirin” (The University of Kentucky Research Foundation, priority 1979, dated 1980)

Experiments:
[1] = rate of generation of aspirin via hydrolysis, determined spectrophotometrically at 285 nm; format: physicochemical; settings: for half-life: buffer, read-out: half-life of hydrolysis to aspirin (t1/2); for half-life / half-life of hydrolysis to aspirin (t1/2): average of three determinations
Method: Therefore, the decrease in absorbance of a solution containing both the prodrug of this invention and aspirin observed at 285 nanometers upon adjustment of the pH to a value of six is proportional to the amount of aspirin in the solution.
Accordingly, the rate of generation of aspirin via hydrolysis of the derivative of the present invention was determined spectrophotometrically at 285 nm. Solutions of 1-O-(2'-acetoxy)benzoyl-α-D-2-deoxyglucopyranose in a buffered solution containing 5 mg/ml were freshly prepared and maintained at constant temperature in a circulating waterbath. […] Buffers employed were hydrochloric acid (pH 1 to 2), citrate (pH 3), acetate (pH 4 to 6) and phosphate (pH 7-9). Ionic strength was adjusted with potassium chloride (usually to 0.1). The change in absorbance at 285 nm was followed until no change in absorbance was observed. First order plots were constructed by plotting log (At -A.infin.) agains time. The effect of pH on the rate of hydrolysis was determined using solutions ranging from pH 1.2 to pH 9.
*Each halflife is the average of three determinations.

[2] = rate of hydrolysis by following the rate of appearance of aspirin in solution by high pressure liquid chromatography; format: physicochemical; settings: HPLC; pH and temperature not given
Method: The rate of hydrolysis of 1-O-(2'-acetoxy)benzoyl-α-D-glucopyranose, i.e., the compound of the formula [drawing 4] was determined by following the rate of appearance of aspirin in a solution by high pressure liquid chromatography.

[3] = cited from earlier work

CC(=O)Oc1ccccc1C(=O)O[C@@H]1C[C@@H](O)[C@H](O)[C@@H](CO)O1 [1-O-(2'-acetoxy)benzoyl-α-D-2-deoxyglucopyranose]
half-life ([1]; pH 3, pH 3, 37° C): 7 min | half-life ([1]; pH 4.6, pH 4.6, 37° C): 7.1 min | half-life ([1]; pH 8, pH 8, 37° C): 7 min | half-life ([1]; pH 9, pH 9, 37° C): 7 min | half-life of hydrolysis to aspirin (t1/2) ([1]; pH 6.4, 37° C): 7.0 min | half-life of hydrolysis to aspirin (t1/2) ([1]; pH 8, 37° C): 7.02 min | effect of pH on the generation of aspirin from the derivative ([1]; solutions ranging from pH 1.2 to pH 9): independent of the pH of the solutions

CC(=O)Oc1ccccc1C(=O)O[C@H]1O[C@H](CO)[C@@H](O)[C@H](O)[C@H]1O [1-O-(2'-acetoxy)benzoyl-α-D-glucopyranose]
half-life [2]: 55 h | hydrolysis product ([3]; reaction scheme (II)): tends to hydrolyze so as to form the corresponding sugar derivative of salicylic acid | rate of hydrolysis to aspirin ([3]; to the extent that hydrolysis to aspirin takes place): very slow rate
